What was measured:
[1] = target: T1, hNav1.5 (Homo sapiens, UniProt Q14524); assay: Tonic block of hNav1.5 currents, whole-cell patch clamp in transfected HEK293 cells; format: cell-based; details: for Kd: test pulse −10 mV at 0.2 Hz, room temperature, read-out: Kd of tonic block (Hill fit)
T1 construct: expressed in transfected cells; host or cells: HEK293
Description: (§1) The plasmid DNA of hNav1.5 in pTracer was used (gift from Dirk Isbrandt, Hamburg, Germany) for mutagenesis of F1760A (Qickchange XL kit, Qiagen GmbH, Hilden) and was performed according to the instructions of the manufacturer. HEK293 cells were maintained in Dulbecco’s Modified Eagle’s Medium (Invitrogen, Carlsbad, CA), supplemented with 10% fetal bovine serum, 100 U/ml penicillin and 100 µg/ml streptomycin, and incubated at 37°C with 5% CO2. […] Cells were transfected at 40–70% confluency using Nanofectin (PAA Laboratories GmbH, Pasching, Austria), according to manufacturer’s instructions, with 1 µg of hNav1.5 or the F1760A mutant of hNav1.5 and 0.5 µg EGFP, and distributed onto several 35 mm dishes on the following day. […] Only cells with robust green fluorescence were included in the analysis.
Whole-cell patch-clamp experiments were performed at room temperature using an Axopatch 200A operated by Clampex 9.2 software (Axon Instruments, Molecular Devices, USA) and 1–2 MΩ glass electrodes (WPI Inc, USA). […] All reagents were purchased from Sigma Chemical Company (Deisenhofen, Germany) unless otherwise noted. The tip of a constantly running gravity-driven perfusion system was positioned close to the recorded cell and drugs were applied by switching to bath solution containing the indicated concentration. […] Capacitive transients were cancelled, and series resistances (<5 MΩ) were compensated by 65–95%. Leak currents were subtracted digitally online using the P/4 procedure following the test pulses except for recordings of use dependency, where no leak correction was used. Currents were filtered at 10 kHz and sampled at 100 kHz, except for steady-state fast inactivation, where a sampling rate of 20 kHz was used.Recordings were obtained 4 min after establishing the whole-cell configuration. […] The block occurring 15 pulses after BPA or ETOH application (Ipost/Ipre = [drawing 1] ) was used as indicator for tonic block. The resulting single dose response data were fitted with a Hill function using a Levenberg-Marquard algorithm of Origin’s non linear curve fitter, where start and end were set to 0 and 1, respectively.

[2] = target: T2, F1760A mutant of hNav1.5 (Homo sapiens, UniProt Q14524, F1760A); assay: Tonic block of F1760A mutant hNav1.5 currents, whole-cell patch clamp in transfected HEK293 cells; format: cell-based; details: Vhold −120 mV, tested every 5 s, read-out: Kd of tonic block (Hill fit)
T2 construct: expressed in transfected cells; host or cells: HEK293
Description: as §1
Whole-cell patch-clamp experiments were performed at room temperature using an Axopatch 200A operated by Clampex 9.2 software (Axon Instruments, Molecular Devices, USA) and 1–2 MΩ glass electrodes (WPI Inc, USA). […] All reagents were purchased from Sigma Chemical Company (Deisenhofen, Germany) unless otherwise noted. The tip of a constantly running gravity-driven perfusion system was positioned close to the recorded cell and drugs were applied by switching to bath solution containing the indicated concentration. […]

[3] = target: T1, hNav1.5; assay: Voltage dependence of steady-state fast inactivation of hNav1.5, whole-cell patch clamp; format: cell-based
Description: Whole-cell patch-clamp experiments were performed at room temperature using an Axopatch 200A operated by Clampex 9.2 software (Axon Instruments, Molecular Devices, USA) and 1–2 MΩ glass electrodes (WPI Inc, USA). […] All reagents were purchased from Sigma Chemical Company (Deisenhofen, Germany) unless otherwise noted. The tip of a constantly running gravity-driven perfusion system was positioned close to the recorded cell and drugs were applied by switching to bath solution containing the indicated concentration. […] Capacitive transients were cancelled, and series resistances (<5 MΩ) were compensated by 65–95%. Leak currents were subtracted digitally online using the P/4 procedure following the test pulses except for recordings of use dependency, where no leak correction was used. […] Fitting parameters (Kd) are given as best fit ± standard error.

[4] = target: T1, hNav1.5; assay: Activation and current decay of hNav1.5, whole-cell patch clamp; format: cell-based; details: post 100 µM BPA
Description: . The sodium channel conductance GNa was calculated using the following equation: […]
where INa is the amplitude of the current at the voltage Vm, and Erev is the reversal potential for sodium, which was determined for each cell individually. Activation curves were derived by plotting normalized GNa as a function of test potential and fitted using the Boltzmann equation: […]
where GNa,Max is the maximum conductance, Vhalf is the membrane potential at half-maximal activation, Vm is the membrane voltage and k is the slope factor.
Decay time constants were determined by fitting current recordings at test pulses to −10 mV for 40 ms from peak with a single exponential fit.

[5] = target: T1, hNav1.5; assay: Dissociation constants for resting (Kr) and inactivated (Ki) hNav1.5 channels, whole-cell patch clamp; format: cell-based; details: determined with 30 µM drug; read-out: Kr, dissociation constant for resting channels
Description: The dissociation constant for the resting channels, Kr, of the applied drugs were determined according to [17], [18]: with [drug] being the drug concentration present and Brest being the detected block of resting channels. […] This potential was determined for each cell individually by the above described protocol for steady-state fast inactivation.

[6] = target: T1, hNav1.5; assay: Use-dependent current decline of hNav1.5, repetitive pulsing, whole-cell patch clamp; format: cell-based; details: for use-dependent block: 30 µM, WT hNav1.5, Vhold −120 mV
Text: […] Current responses were normalized to the first recorded pulse and the available currents at the 30th pulses were compared.

[7] = target: T2, F1760A mutant of hNav1.5; assay: Use-dependent current decline of F1760A mutant hNav1.5, repetitive pulsing, whole-cell patch clamp; format: cell-based
Description: The plasmid DNA of hNav1.5 in pTracer was used (gift from Dirk Isbrandt, Hamburg, Germany) for mutagenesis of […] kit, Qiagen GmbH, Hilden) and was performed according to the instructions of the manufacturer. HEK293 cells were maintained in Dulbecco's Modified Eagle's Medium (Invitrogen, Carlsbad, CA), supplemented with 10% fetal bovine serum, 100 U/ml penicillin and 100 μg/ml streptomycin, and incubated at 37°C with 5% CO2. Briefly, HEK293 cells were plated at low density on 35 mm dishes 24 hours before transfection. […] Electrophysiology was performed 18-28 hours following transfections. Only cells with robust green fluorescence were included in the analysis.

[8] = set-up: method as in PMID 12387626; details: cited from earlier work
[9] = cited from earlier work

T1 sequence (Q14524 whole entry): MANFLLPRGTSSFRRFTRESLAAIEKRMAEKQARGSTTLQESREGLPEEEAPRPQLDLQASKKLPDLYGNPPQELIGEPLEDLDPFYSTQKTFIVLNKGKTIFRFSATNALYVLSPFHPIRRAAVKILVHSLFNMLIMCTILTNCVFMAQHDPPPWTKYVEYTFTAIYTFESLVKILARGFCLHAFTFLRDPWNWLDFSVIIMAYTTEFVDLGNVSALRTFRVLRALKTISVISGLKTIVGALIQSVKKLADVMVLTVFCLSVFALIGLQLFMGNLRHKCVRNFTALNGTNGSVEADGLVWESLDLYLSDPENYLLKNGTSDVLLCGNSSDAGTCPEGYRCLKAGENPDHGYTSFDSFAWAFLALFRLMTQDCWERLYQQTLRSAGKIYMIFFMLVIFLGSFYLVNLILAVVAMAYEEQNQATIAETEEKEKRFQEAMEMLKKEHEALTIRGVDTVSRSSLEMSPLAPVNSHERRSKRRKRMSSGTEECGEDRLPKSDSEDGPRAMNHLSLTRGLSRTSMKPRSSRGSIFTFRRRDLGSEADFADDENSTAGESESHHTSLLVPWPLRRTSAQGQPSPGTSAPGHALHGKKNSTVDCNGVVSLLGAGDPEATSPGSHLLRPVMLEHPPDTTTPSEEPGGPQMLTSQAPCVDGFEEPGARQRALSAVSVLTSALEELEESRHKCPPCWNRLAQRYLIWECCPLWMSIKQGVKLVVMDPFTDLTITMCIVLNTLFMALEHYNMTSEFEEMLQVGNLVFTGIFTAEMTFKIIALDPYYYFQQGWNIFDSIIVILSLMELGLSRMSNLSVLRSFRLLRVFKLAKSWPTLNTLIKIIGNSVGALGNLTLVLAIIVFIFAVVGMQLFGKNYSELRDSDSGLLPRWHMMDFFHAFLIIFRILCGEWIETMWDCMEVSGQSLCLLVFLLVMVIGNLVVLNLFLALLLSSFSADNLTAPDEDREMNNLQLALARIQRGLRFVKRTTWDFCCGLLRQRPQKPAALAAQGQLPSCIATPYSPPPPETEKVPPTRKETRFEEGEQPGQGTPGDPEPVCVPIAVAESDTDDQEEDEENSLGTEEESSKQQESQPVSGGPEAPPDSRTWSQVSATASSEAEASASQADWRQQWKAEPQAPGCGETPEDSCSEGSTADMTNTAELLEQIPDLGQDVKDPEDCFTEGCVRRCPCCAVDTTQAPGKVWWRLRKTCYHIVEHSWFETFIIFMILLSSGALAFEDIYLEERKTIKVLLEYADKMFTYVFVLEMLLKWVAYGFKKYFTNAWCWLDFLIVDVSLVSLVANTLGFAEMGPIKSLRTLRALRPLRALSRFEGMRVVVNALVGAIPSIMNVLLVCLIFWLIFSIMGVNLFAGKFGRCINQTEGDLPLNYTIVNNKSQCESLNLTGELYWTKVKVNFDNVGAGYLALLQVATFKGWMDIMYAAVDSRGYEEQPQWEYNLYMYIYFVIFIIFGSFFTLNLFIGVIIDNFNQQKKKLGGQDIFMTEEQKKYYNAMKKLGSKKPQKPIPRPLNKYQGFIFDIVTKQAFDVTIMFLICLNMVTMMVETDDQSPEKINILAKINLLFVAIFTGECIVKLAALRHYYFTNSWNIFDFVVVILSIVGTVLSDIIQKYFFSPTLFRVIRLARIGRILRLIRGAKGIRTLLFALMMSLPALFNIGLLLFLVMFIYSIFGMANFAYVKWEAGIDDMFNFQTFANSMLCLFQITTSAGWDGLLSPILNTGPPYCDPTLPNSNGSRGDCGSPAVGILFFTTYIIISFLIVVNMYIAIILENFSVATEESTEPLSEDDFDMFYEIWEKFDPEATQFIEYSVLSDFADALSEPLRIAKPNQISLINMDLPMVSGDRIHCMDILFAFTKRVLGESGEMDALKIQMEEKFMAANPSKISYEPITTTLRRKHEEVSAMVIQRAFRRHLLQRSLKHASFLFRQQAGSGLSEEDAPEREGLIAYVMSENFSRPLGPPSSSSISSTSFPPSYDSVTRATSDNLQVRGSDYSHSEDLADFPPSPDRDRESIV
T2 sequence (Q14524 whole entry F1760A): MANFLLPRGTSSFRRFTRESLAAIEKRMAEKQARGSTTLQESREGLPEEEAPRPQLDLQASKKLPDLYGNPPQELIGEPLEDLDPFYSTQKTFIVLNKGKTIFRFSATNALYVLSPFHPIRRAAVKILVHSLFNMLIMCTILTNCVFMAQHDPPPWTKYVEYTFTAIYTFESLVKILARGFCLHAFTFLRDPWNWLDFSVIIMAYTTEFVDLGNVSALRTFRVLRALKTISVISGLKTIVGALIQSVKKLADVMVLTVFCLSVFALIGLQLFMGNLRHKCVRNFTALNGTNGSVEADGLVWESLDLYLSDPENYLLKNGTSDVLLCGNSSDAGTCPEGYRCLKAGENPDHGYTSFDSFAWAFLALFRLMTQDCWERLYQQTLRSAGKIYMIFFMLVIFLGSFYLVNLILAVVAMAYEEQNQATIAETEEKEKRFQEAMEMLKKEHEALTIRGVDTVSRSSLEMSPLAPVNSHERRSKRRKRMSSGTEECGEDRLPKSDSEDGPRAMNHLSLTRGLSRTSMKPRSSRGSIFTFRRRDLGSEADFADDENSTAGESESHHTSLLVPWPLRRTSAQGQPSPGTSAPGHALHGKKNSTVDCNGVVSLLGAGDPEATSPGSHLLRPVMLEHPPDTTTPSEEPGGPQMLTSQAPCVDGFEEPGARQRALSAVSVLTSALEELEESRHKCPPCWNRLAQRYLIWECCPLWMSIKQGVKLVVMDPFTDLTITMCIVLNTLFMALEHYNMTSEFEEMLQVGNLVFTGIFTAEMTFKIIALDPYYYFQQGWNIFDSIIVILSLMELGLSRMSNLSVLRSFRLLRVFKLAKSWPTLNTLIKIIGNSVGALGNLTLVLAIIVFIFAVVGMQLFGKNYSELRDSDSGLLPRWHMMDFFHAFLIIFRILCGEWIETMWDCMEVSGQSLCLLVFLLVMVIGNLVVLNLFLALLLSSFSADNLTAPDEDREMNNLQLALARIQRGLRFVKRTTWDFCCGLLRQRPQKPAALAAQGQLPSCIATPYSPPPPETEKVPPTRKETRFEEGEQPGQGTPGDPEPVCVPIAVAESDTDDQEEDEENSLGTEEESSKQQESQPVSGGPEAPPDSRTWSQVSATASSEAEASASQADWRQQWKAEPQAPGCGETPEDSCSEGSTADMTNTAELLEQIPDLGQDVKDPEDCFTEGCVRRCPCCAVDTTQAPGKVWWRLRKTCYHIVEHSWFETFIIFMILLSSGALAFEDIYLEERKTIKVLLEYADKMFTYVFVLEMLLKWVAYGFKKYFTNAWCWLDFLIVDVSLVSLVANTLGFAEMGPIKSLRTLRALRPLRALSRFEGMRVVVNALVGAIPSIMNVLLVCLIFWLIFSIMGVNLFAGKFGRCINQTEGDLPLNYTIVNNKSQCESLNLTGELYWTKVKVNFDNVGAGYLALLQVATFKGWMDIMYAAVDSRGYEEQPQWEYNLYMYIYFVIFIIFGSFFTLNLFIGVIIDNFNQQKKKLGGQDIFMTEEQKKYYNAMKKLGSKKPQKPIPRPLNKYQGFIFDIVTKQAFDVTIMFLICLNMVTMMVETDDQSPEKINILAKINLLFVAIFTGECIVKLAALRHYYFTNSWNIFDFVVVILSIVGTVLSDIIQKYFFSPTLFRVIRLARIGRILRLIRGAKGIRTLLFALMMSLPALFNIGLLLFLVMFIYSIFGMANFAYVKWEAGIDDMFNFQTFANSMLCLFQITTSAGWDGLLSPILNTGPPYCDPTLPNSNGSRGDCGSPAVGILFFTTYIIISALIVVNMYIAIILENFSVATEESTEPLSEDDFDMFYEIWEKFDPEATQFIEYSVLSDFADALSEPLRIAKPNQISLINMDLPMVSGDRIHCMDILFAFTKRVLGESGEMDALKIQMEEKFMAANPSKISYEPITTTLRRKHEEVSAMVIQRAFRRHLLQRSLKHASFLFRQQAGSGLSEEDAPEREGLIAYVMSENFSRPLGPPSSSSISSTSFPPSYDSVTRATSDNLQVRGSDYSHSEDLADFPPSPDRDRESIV

| Compound | Kd ([1]; WT hNav1.5, Vhold −90 mV) [µM] | Kd ([1]; WT hNav1.5, Vhold −120 mV) [µM] | lowest concentration tested at which hNav1.5 currents were not affected (no effect level, NOEL) ([1]; tonic block) [nM] | lowest concentration to have a significant effect on hNav1.5 ([1]; tonic block, Fig. 1A) [µM] | Kd [2] [µM] | hyperpolarizing shift of Vhalf of steady-state fast inactivation ([3]; 100 µM, n = 9) [mV] | slope factor k of steady-state fast inactivation ([3]; post application of 100 µM BPA, pre 5.6±0.3) | Vhalf of steady-state fast inactivation ([3]; post application of 100 µM BPA, pre −89.3±1.5 mV, n = 9) [mV] | τ of single exponential fit of current decay ([4]; test pulse to −10 mV, pre 1.1±0.08 ms) [ms] | Vhalf of activation ([4]; pre −32.0±2.5 mV) [mV] | Kd [5] [µM] | use-dependent block [6] | use-dependent current decline ([6]; all frequencies tested (1 to 100 Hz), WT hNav1.5) | use-dependent block in F1760A compared to WT ([7]; 30 µM) | half-life in the body [8] [h] | mean human blood levels [9] [nM] | highest reported blood level ([9]; human) [nM] | tonic block ([1]; 30 µM, WT hNav1.5) | tonic and use-dependent block in F1760A compared to WT ([7]; 150 µM) |
| --- | --- | --- | --- | --- | --- | --- | --- | --- | --- | --- | --- | --- | --- | --- | --- | --- | --- | --- | --- |
| CC(C)(c1ccc(O)cc1)c1ccc(O)cc1 [BPA, Bisphenol A] | 25.4 ± 1.3 | 74 ± 7.6 | 100 | 1 | 104 ± 6.7 | 15.8±1.1 | 6.5±0.2 | −105.1±2.1 | 1.13 ± 0.1 | −32.9±3.7 | 58.6 ± 8 | significant use-dependent block | enhance use-dependent current decline | robustly reduced | < 6 | ~10 | 290 | – | – |
| Cc1cccc(C)c1OCC(C)N (centres unmarked) [mexiletine, reference compound] | – | – | – | – | – | – | – | – | – | – | – | significant use-dependent block | – | – | – | – | – | almost absent | reduced tonic and use-dependent block |
